Laboratory results reported in publication PMC9680032, “Conformationally Locked Carbocyclic Nucleosides Built on a 4′-Hydroxymethyl-3′-hydroxybicyclo[4.1.0]heptane Template. Stereoselective Synthesis and Antiviral Activity” (The Journal of Organic Chemistry, 2022).
Values after ≈ are worked out from the molar mass of the structure shown.

How the values were obtained:
in vitro [1] = details: dog
[2] = tested on: Influenza B virus B/Ned/537/05; assay: Antiviral CPE assay, Influenza B in MDCK cells; type: cell-based; details: MDCK cell cultures; for EC50: Influenza B virus
Zika virus = assay: Antiviral CPE assay, Zika virus in Vero cells; type: cell-based; details: for EC50: Zika virus, Vero
[3] = tested on: Influenza A virus A/HK/7/87 (H3N2); assay: Antiviral CPE assay, Influenza A (H3N2) in MDCK cells; type: cell-based; details: for EC50: Influenza A virus, H3N2, MDCK
[4] = tested on: Human immunodeficiency virus (ROD); assay: Antiviral CPE assay, HIV-2 (ROD) in MT-4 cells; type: cell-based; details: for EC50: Human immunodeficiency virus 2, MT4
[5] = tested on: Vesicular stomatitis virus; assay: microbe, parasite or virus in culture; type: cell-based; details: for EC50: Vesicular stomatitis virus, HEp-2, read-out: Antiviral EC50 Vesicular stomatitis virus
[6] = tested on: Human immunodeficiency virus (IIIB); assay: Antiviral CPE assay, HIV-1 (IIIB) in MT-4 cells; type: cell-based, human immunodeficiency virus type 1 (HIV-1); details: for EC50: Human immunodeficiency virus 1, IIIB, MT4
Coxsackie virus B4 [7] = assay: Antiviral CPE assay, Coxsackie virus B4 in Vero cells; type: cell-based; details: for EC50: Enterovirus B, B4, Vero
Adeno virus-2 = assay: organism not typed; type: cell-based; details: for EC50: HEL, read-out: Antiviral EC50 Adeno virus-2
Human Coronavirus (229E) = assay: microbe, parasite or virus in culture; type: cell-based; details: for EC50: Human coronavirus 229E, HEL, read-out: Antiviral EC50 Human Coronavirus (229E)
[8] = Cytotoxicity in Vero cell cultures (MTS); type: cell-based, African green monkey; details: African green monkey, Vero cells (kidney epithelial cells), uninfected, MTS assay, read-out: Cytotoxixity CC50
Coxsackie virus B4 [9] = assay: Antiviral CPE assay, Coxsackie virus B4 in HEp-2 cells; type: cell-based; details: for EC50: Enterovirus B, B4, HEp-2
Reo-virus-1 = assay: Antiviral CPE assay, Reovirus-1 in Vero cells; type: cell-based; details: for EC50: Vero
[10] = tested on: Herpes simplex virus-2 (G); assay: microbe, parasite or virus in culture; type: cell-based; details: for EC50: Human alphaherpesvirus 2, HEL, read-out: Antiviral EC50 Herpes simplex virus-2 (G)
[11] = tested on: Herpes simplex virus-1 (KOS); assay: microbe, parasite or virus in culture; type: cell-based; details: for EC50: Human alphaherpesvirus 1, HEL, read-out: Antiviral EC50 Herpes simplex virus-1 (KOS)
Punta Toro virus = assay: Antiviral CPE assay, Punta Toro virus in Vero cells; type: cell-based; details: for EC50: Punta Toro virus, Vero
[12] = tested on: Respiratory syncytial virus; assay: Antiviral CPE assay, Respiratory syncytial virus in HEp-2 cells; type: cell-based; details: for EC50: human respiratory syncytial virus, HEp-2
Yellow Fever virus = assay: microbe, parasite or virus in culture; type: cell-based; details: for EC50: Yellow fever virus, Vero, read-out: Antiviral EC50 Yellow Fever virus, Vero cell cultures
[13] = Cytotoxicity in HEp-2 cell cultures (MTS); details: human
Sindbis virus = assay: Antiviral CPE assay, Sindbis virus in Vero cells; type: cell-based; details: for EC50: Sindbis virus, Vero
Vaccinia virus = assay: microbe, parasite or virus in culture; type: cell-based; details: for EC50: Orthopoxvirus vaccinia, HEL, read-out: Antiviral EC50 Vaccinia virus
[14] = tested on: Influenza A virus A/Ned/378/05A (H1N1); assay: Antiviral CPE assay, Influenza A (H1N1) in MDCK cells; type: cell-based; details: for EC50: Influenza A virus, H1N1, MDCK
[15] = Cytotoxicity in MT-4 cell cultures (MTS); details: human, Cytotoxixity CC50, MT-4 cell cultures, MTS assay
Vero cells = assay: Cytotoxicity in Vero cell cultures (MTS); type: cell-based, African green monkey; details: MTS assay
[16] = tested on: MDCK (Madin-Darby Canine Kidney) cells; details: dog
[17] = tested on: HEp-2 (Human Epidermoid carcicoma) cells; assay: Cytotoxicity in HEp-2 cell cultures (MTS); details: HEp-2 cell cultures, MTS assay
HEL cells = details: human
[18] = tested on: MT-4 cells (human lymphocytic cell line); assay: Cytotoxicity in MT-4 cell cultures (MTS); details: MT-4 cell cultures, MTS assay
in vitro [19] = details: human, Cytotoxixity CC50

## Cc1cn(C2CC(O)C(CO)C3CC32)c(=O)[nH]c1=O (stereo not drawn) [Compound 1a, 1-((1′S,2′S,4′R,5′R,6′R)-4′-Hydroxy-5′-(hydroxymethyl)bicyclo[4.1.0]heptan-2′-yl)-5-methylpyrimidine-2,4(1H,3H)-dione]
In vitro [1]
  CC50: > 50 µg/mL
[2]
  EC50: > 50 µg/mL
Zika virus
  EC50: > 50 µg/mL
[3]
  EC50: > 50 µg/mL
other
  melting point: 189 to 191 °C
[4]
  EC50: > 99.1 µg/mL
[5]
  EC50: > 50 µg/mL
[6]
  EC50: > 99.1 µg/mL
Coxsackie virus B4 [7]
  EC50: > 50 µg/mL
Adeno virus-2
  EC50: > 50 µg/mL
Human Coronavirus (229E)
  EC50: > 50 µg/mL
[8]
  CC50: > 50 µg/mL
Coxsackie virus B4 [9]
  EC50: > 50 µg/mL
Reo-virus-1
  EC50: > 50 µg/mL
[10]
  EC50: > 50 µg/mL
[11]
  EC50: > 50 µg/mL
Punta Toro virus
  EC50: > 50 µg/mL
[12]
  EC50: > 50 µg/mL
Yellow Fever virus
  EC50: > 50 µg/mL
[13]
  CC50: > 50 µg/mL
Sindbis virus
  EC50: > 50 µg/mL
Vaccinia virus
  EC50: > 50 µg/mL
[14]
  EC50: > 50 µg/mL
[15]
  CC50: 99.1 µg/mL (≈ 372 µM)

## Cc1cn(C2CC(O)C(CO)C3CC32)c(=O)[nH]c1=O (stereo not drawn) [Compound 2, 1-[(1′S,2′S,4′S,5′R,6′R)-4′-Hydroxy-5′-(hydroxymethyl)bicyclo[4.1.0]hept-2′-yl]-5-methylpyrimidine-2,4(1H,3H)-dione]
[2]
  Antiviral EC50 Influenza B virus B/Ned/537/05: > 50 µg/mL
Zika virus
  Antiviral EC50 Zika virus: > 50 µg/mL
[3]
  Antiviral EC50 Influenza A virus A/HK/7/87 (H3N2): > 50 µg/mL
[4]
  Antiviral EC50 Human immunodeficiency virus (ROD): > 125 µg/mL
[5]; HEp-2 cell cultures
  Antiviral EC50 Vesicular stomatitis virus: > 50 µg/mL
[6]
  Antiviral EC50 Human immunodeficiency virus (IIIB): > 125 µg/mL
Coxsackie virus B4 [7]
  Antiviral EC50 Coxsackie virus B4: > 50 µg/mL
Adeno virus-2
  Antiviral EC50 Adeno virus-2: > 50 µg/mL
Human Coronavirus (229E)
  Antiviral EC50 Human Coronavirus (229E): > 50 µg/mL
Vero cells
  Cytotoxixity CC50: > 50 µg/mL
Coxsackie virus B4 [9]
  Antiviral EC50 Coxsackie virus B4: > 50 µg/mL
Reo-virus-1
  Antiviral EC50 Reo-virus-1: > 50 µg/mL
[10]
  Antiviral EC50 Herpes simplex virus-2 (G): > 50 µg/mL
[11]
  Antiviral EC50 Herpes simplex virus-1 (KOS): > 50 µg/mL
Punta Toro virus
  Antiviral EC50 Punta Toro virus: > 50 µg/mL
[12]
  Antiviral EC50 Respiratory syncytial virus: > 50 µg/mL
[16]
  Cytotoxixity CC50: > 50 µg/mL
Yellow Fever virus; Vero cell cultures
  Antiviral EC50 Yellow Fever virus: > 50 µg/mL
[17]
  Cytotoxixity CC50: > 50 µg/mL
Sindbis virus
  Antiviral EC50 Sindbis virus: > 50 µg/mL
Vaccinia virus; HEL cell cultures
  Antiviral EC50 Vaccinia virus: > 50 µg/mL
HEL cells
  Cytotoxixity CC50: > 50 µg/mL
[14]
  Antiviral EC50 Influenza A virus A/Ned/378/05 (H1N1): > 50 µg/mL
[18]
  Cytotoxixity CC50: > 125 µg/mL

## NC(=O)c1nnn(C2CC(O)C(CO)C3CC32)c1N (stereo not drawn) [Compound 3b, 5-Amino-1-[(1′S,2′S,4′R,5′R,6′R)-4′-hydroxy-5′-(hydroxymethyl)bicyclo-[4.1.0]hept-2′-yl]-1H-1,2,3-triazole-4-carboxamide]
In vitro [1]
  CC50: > 50 µg/mL
[2]
  EC50: > 50 µg/mL
Zika virus
  EC50: > 50 µg/mL
[3]
  EC50: > 50 µg/mL
other
  melting point: 210 to 213 °C
[4]
  EC50: > 125 µg/mL
[5]
  EC50: > 50 µg/mL
[6]
  EC50: > 125 µg/mL
Coxsackie virus B4 [7]
  EC50: > 50 µg/mL
Adeno virus-2
  EC50: > 50 µg/mL
Human Coronavirus (229E)
  EC50: > 50 µg/mL
[8]
  CC50: > 50 µg/mL
Coxsackie virus B4 [9]
  EC50: > 50 µg/mL
Reo-virus-1
  EC50: > 50 µg/mL
[10]
  EC50: > 50 µg/mL
[11]
  EC50: > 50 µg/mL
Punta Toro virus
  EC50: > 50 µg/mL
[12]
  EC50: > 50 µg/mL
Yellow Fever virus
  EC50: > 50 µg/mL
[13]
  CC50: > 50 µg/mL
Sindbis virus
  EC50: > 50 µg/mL
Vaccinia virus
  EC50: > 50 µg/mL
[14]
  EC50: > 50 µg/mL
[15]
  CC50: > 125 µg/mL

## Nc1ccn([C@@H]2CS[C@H](CO)O2)c(=O)n1 [Lamivudine, reference compound]
[4]
  EC50: 2.27 µg/mL (≈ 9.9 µM)
[6]
  EC50: 0.58 µg/mL (≈ 2.53 µM)
In vitro [19]
  CC50: > 20 µg/mL

## Cc1ccnc2c1NC(=O)c1cccnc1N2C1CC1 [Neviparine, reference compound]
[4]
  Antiviral EC50 Human immunodeficiency virus (ROD): > 4 µg/mL
[6]
  Antiviral EC50 Human immunodeficiency virus (IIIB): 0.075 µg/mL
[18]
  Cytotoxixity CC50: > 4 µg/mL
